Measured values taken from US9416102B2, “(22E)-2-methylene-22-dehydro-1α,24,25-trihydroxy-19-nor-vitamin D3 analogs” (Wisconsin Alumni Research Foundation, priority 2013, dated 2016).

Experiments:
[1] = biological target: T1, Full-length recombinant rat receptor (vitamin D receptor, VDR) (Rattus norvegicus, UniProt P13053); assay: Vitamin D receptor competitive binding; conditions: relative to 1,25(OH)2D3, FIG. 1; for competition for binding to the VDR compared to the native hormone: in words
T1 construct: Full-length recombinant rat receptor was expressed in E. coli; histidine tag (C); made in house; host or cells: E. coli BL21(DE3) Codon Plus RIL
T1 sequence (P13053 1-423): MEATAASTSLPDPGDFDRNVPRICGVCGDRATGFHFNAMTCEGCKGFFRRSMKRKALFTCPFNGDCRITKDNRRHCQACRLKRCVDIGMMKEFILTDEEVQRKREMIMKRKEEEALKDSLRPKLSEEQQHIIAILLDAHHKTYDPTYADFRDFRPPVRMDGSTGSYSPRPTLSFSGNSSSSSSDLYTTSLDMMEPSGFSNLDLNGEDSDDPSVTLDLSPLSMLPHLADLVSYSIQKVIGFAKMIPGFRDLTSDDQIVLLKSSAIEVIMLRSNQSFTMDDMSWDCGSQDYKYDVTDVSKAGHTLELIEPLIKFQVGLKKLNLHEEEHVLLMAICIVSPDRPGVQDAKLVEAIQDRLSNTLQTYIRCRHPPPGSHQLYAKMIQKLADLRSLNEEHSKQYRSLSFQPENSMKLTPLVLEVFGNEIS
Source text: Vitamin D Receptor Binding
Full-length recombinant rat receptor was expressed in E. coli BL21(DE3) Codon Plus RIL cells and purified to homogeneity using two different column chromatography systems. The first system was a nickel affinity resin that utilizes the C-terminal histidine tag on this protein. The protein that was eluted from this resin was further purified using ion exchange chromatography (S-Sepharose Fast Flow). Aliquots of the purified protein were quick frozen in liquid nitrogen and stored at −80° C. until use. For use in binding assays, the protein was diluted in TEDK50 (50 mM Tris, 1.5 mM EDTA, pH 7.4, 5 mM DTT, 150 mM KCl) with 0.1% Chaps detergent. The receptor protein and ligand concentration was optimized such that no more than 20% of the added radiolabeled ligand was bound to the receptor.
Unlabeled ligands were dissolved in ethanol and the concentrations determined using UV spectrophotometry (1,25(OH)2D3: molar extinction coefficient=18,200 and 1max=265 nm; Analogs: molar extinction coefficient=42,000 and 1max=252 nm). Radiolabeled ligand (^3H-1,25(OH)2D3, ˜159 Ci/mmole) was added in ethanol at a final concentration of 1 nM.
Radiolabeled and unlabeled ligands were added to 100 mcl of the diluted protein at a final ethanol concentration of ≦10%, mixed and incubated overnight on ice to reach binding equilibrium. The following day, 100 mcl of hydroxylapatite slurry (50%) was added to each tube and mixed at 10-minute intervals for 30 minutes. The hydroxyapaptite was collected by centrifugation and then washed three times with Tris-EDTA buffer (50 mM Tris, 1.5 mM EDTA, pH 7.4) containing 0.5% Titron X-100. After the final wash, the pellets were transferred to scintillation vials containing 4 ml of Biosafe II scintillation cocktail, mixed and placed in a scintillation counter. Total binding was determined from the tubes containing only radiolabeled ligand.

[2] = test system: 24-hydroxylase (24OHase) gene promoter; assay: In vitro transcription assay (luciferase reporter in ROS 17/2.8 cells); format: cell-based; conditions: FIG. 3; for stimulation of gene transcription compared to the native hormone: in words
Description: In Vitro Transcription Assay
Transcription activity was measured in ROS 17/2.8 (bone) cells that were stably transfected with a 24-hydroxylase (24OHase) gene promoter upstream of a luciferase reporter gene (Arbour et al., 1998). Cells were given a range of doses. Sixteen hours after dosing the cells were harvested and luciferase activities were measured using a luminometer. RLU=relative luciferase units.

[3] = test system: ovariectomized (OVX) Sprague-Dawley female rats; assay: Ovariectomized rat model, bone strength testing (3-point bending); format: in vivo; conditions: 60 ng/kg body weight once daily for 17 weeks, FIG. 6
Description: Virgin Sprague-Dawley female rats were either sham-operated or ovariectomized (OVX) at 4 months of age by the vendor (Harlan). Starting at 16 weeks post-surgery, the animals were given vehicle or test analog (WT or 2MD) once daily for 17 weeks. Bone mineral density (BMD) and serum and urinary calcium levels were assessed periodically throughout the study. At termination, femurs were collected for bone strength testing (3-point bending, Numira Biosciences).

[4] = test system: Human promyelocytic leukemia (HL-60) cells; assay: HL-60 differentiation (nitro blue tetrazolium reduction); format: cell-based; conditions: relative to 1,25(OH)2D3; FIG. 2
Description: The study drugs were dissolved in ethanol and the concentrations determined using UV spectrophotometry. Serial dilutions were prepared so that a range of drug concentrations could be tested without changing the final concentration of ethanol (≦0.2%) present in the cell cultures.
Human promyelocytic leukemia (HL-60) cells were grown in RPMI-1640 medium containing 10% fetal bovine serum. The cells were incubated at 37° C. in the presence of 5% CO2.
HL-60 cells were plated at 1.2×10^5 cells/ml. Eighteen hours after plating, cells in duplicate were treated with drug. Four days later, the cells were harvested and a nitro blue tetrazolium reduction assay was performed (Collins et al., 1979; J. Exp. Med. 149:969-974). The percentage of differentiated cells was determined by counting a total of 200 cells and recording the number that contained intracellular black-blue formazan deposits. Verification of differentiation to monocytic cells was determined by measuring phagocytic activity (data not shown).

competition for binding to the VDR compared to the native hormone [1] | binding to the vitamin D receptor (VDR), times less active than the natural hormone [1] | Structure (SMILES) | stimulation of gene transcription compared to the native hormone [2] | stimulating gene transcription from the 24OHase gene promoter, times more effective than the natural hormone ([2]; relative to 1,25(OH)2D3) | bone strength compared to 2MD at 2.5 ng/kg body weight [3] | promoting HL-60 cell differentiation, times more potent than the native hormone [4]
one log less than the native hormone | approximately 10 × | C=C1[C@H](O)CC(=C/C=C2\CCC[C@]3(C)[C@@H]([C@H](C)/C=C/[C@H](O)C(C)(C)O)CC[C@@H]23)C[C@H]1O [WT-52, (22E)-(24S)-2-methylene-22-dehydro-1α,24,25-trihydroxy-19-nor-vitamin D3] | approximately the same activity as the native hormone | – | – | –
one log less than the native hormone | approximately 10 × | C=C1[C@H](O)CC(=C/C=C2\CCC[C@]3(C)[C@@H]([C@H](C)/C=C/[C@@H](O)C(C)(C)O)CC[C@@H]23)C[C@H]1O [WT-51, (22E)-(24R)-2-methylene-22-dehydro-1α,24,25-trihydroxy-19-nor-vitamin D3] | nearly one log more potent than the native hormone | approximately 10 × | improves bone strength in ovariectomized rats to the same degree as 2MD | approximately 10 ×
